Measurements: ChEMBL document CHEMBL2396653, “Synthesis and antimycobacterial evaluation of N-substituted 5-chloropyrazine-2-carboxamides” (Bioorg Med Chem Lett, 2013)
Converted amounts (≈) assume the structure as drawn. The source made the active and inactive calls. The calls are words filed in the database; no cut-off is given here.

Legend:
[1] = Stability of the compound at pH 7; format: physicochemical; conditions: buffer
[2] = test system: Trichophyton mentagrophytes; assay: Antifungal activity against Trichophyton mentagrophytes 445 assessed as growth inhibition after 72 to 120 hrs by microbroth dilution method; format: functional, organism-based
[3] = test system: Lichtheimia corymbifera; assay: Antifungal activity against Absidia corymbifera 272 assessed as growth inhibition after 24 to 48 hrs by microbroth dilution method; format: functional, organism-based
[4] = test system: Aspergillus fumigatus; assay: Antifungal activity against Aspergillus fumigatus 231 assessed as growth inhibition after 24 to 48 hrs by microbroth dilution method; format: functional, organism-based
[5] = test system: Trichosporon asahii; assay: Antifungal activity against Trichosporon asahii 1188 assessed as growth inhibition after 24 to 48 hrs by microbroth dilution method; format: functional, organism-based
[6] = test system: Nakaseomyces glabratus; assay: Antifungal activity against Candida glabrata 20/I assessed as growth inhibition after 24 to 48 hrs by microbroth dilution method; format: functional, organism-based
[7] = test system: Pichia kudriavzevii; assay: Antifungal activity against Candida krusei E28 assessed as growth inhibition after 24 to 48 hrs by microbroth dilution method; format: functional, organism-based
[8] = test system: Candida albicans; assay: Antifungal activity against Candida albicans ATCC 44859 assessed as growth inhibition after 24 to 48 hrs by microbroth dilution method; format: functional, organism-based
[9] = test system: Candida tropicalis; assay: Antifungal activity against Candida tropicalis 156 assessed as growth inhibition after 24 to 48 hrs by microbroth dilution method; format: functional, organism-based
[10] = test system: Klebsiella pneumoniae; assay: Antibacterial activity against ESBL-positive Klebsiella pneumoniae J 14368/08 clinical isolate assessed as growth inhibition after 24 to 48 hrs by microbroth dilution method; format: functional, organism-based
[11] = test system: Klebsiella pneumoniae; assay: Antibacterial activity against Klebsiella pneumoniae D 11750/08 clinical isolate assessed as growth inhibition after 24 to 48 hrs by microbroth dilution method; format: functional, organism-based
[12] = test system: Enterococcus; assay: Antibacterial activity against Enterococcus sp. J 14365/08 clinical isolate assessed as growth inhibition after 24 to 48 hrs by microbroth dilution method; format: functional, organism-based
[13] = test system: Staphylococcus epidermidis; assay: Antibacterial activity against Staphylococcus epidermidis H 6966/08 clinical isolate assessed as growth inhibition after 24 to 48 hrs by microbroth dilution method; format: functional, organism-based
[14] = test system: Staphylococcus aureus; assay: Antibacterial activity against methicillin-resistant Staphylococcus aureus H 5996/08 clinical isolate assessed as growth inhibition after 24 to 48 hrs by microbroth dilution method; format: functional, organism-based
[15] = test system: Pseudomonas aeruginosa; assay: Antibacterial activity against Pseudomonas aeruginosa CCM 1961 assessed as growth inhibition after 24 to 48 hrs by microbroth dilution method; format: functional, organism-based
[16] = test system: Escherichia coli; assay: Antibacterial activity against Escherichia coli CCM 4517 assessed as growth inhibition after 24 to 48 hrs by microbroth dilution method; format: functional, organism-based
[17] = test system: Staphylococcus aureus; assay: Antibacterial activity against Staphylococcus aureus CCM 4516/08 assessed as growth inhibition after 24 to 48 hrs by microbroth dilution method; format: functional, organism-based
[18] = Lipophilicity, log K of the compound by HPLC analysis; format: physicochemical
[19] = test system: Mycobacterium avium; assay: Antimycobacterial activity against Mycobacterium avium CNCTC My 152/73 assessed as growth inhibition after 14 days by microdilution method; format: functional; conditions: CNCTC My 152/73, 336 h
[20] = test system: Mycobacterium avium; assay: Antimycobacterial activity against Mycobacterium avium CNCTC My 80/72 assessed as growth inhibition after 14 days by microdilution method; format: functional; conditions: CNCTC My 80/72, 336 h
[21] = test system: Mycobacterium kansasii; assay: Antimycobacterial activity against Mycobacterium kansasii CNCTC My 235/80 assessed as growth inhibition after 14 days by microdilution method; format: functional; conditions: CNCTC My 235/80, 336 h
[22] = test system: Mycobacterium tuberculosis; assay: Antimycobacterial activity against Mycobacterium tuberculosis H37Rv assessed as growth inhibition after 14 days by microdilution method; format: functional; conditions: 336 h
[23] = test system: Mycobacterium tuberculosis; assay: Ratio of pyrazinamide MIC to compound MIC for Mycobacterium tuberculosis H37Rv; format: functional

Row | SMILES | Stability [1] | growth inhibition (GI) [2] | growth inhibition (GI) [3] | growth inhibition (GI) [4] | growth inhibition (GI) [5] | growth inhibition (GI) [6] | growth inhibition (GI) [7] | growth inhibition (GI) [8] | growth inhibition (GI) [9] | growth inhibition (GI) [10] | growth inhibition (GI) [11] | growth inhibition (GI) [12] | growth inhibition (GI) [13] | growth inhibition (GI) [14] | growth inhibition (GI) [15] | growth inhibition (GI) [16] | growth inhibition (GI) [17] | log K [18] | MIC [19] | MIC [20] | further results
1 | O=C(NCc1cccc(Cl)c1)c1cnc(Cl)cn1 | Stable | inactive | inactive | inactive | inactive | inactive | inactive | inactive | inactive | inactive | inactive | inactive | inactive | inactive | inactive | inactive | inactive | 0.4229 | > 100 µg/mL | > 100 µg/mL | MIC [21]: 50 µg/mL (≈ 177 µM); MIC [22]: 25 µg/mL (≈ 88.6 µM)
2 | COc1ccc(CNC(=O)c2cnc(Cl)cn2)c(OC)c1 | Stable | inactive | inactive | inactive | inactive | inactive | inactive | inactive | inactive | inactive | inactive | inactive | inactive | inactive | inactive | inactive | inactive | 0.2266 | > 100 µg/mL | > 100 µg/mL | MIC [21]: > 100 µg/mL; MIC [22]: > 100 µg/mL
3 | COc1ccc(NC(=O)c2cnc(Cl)cn2)c(OC)c1 | Stable | inactive | inactive | inactive | inactive | inactive | inactive | inactive | inactive | inactive | inactive | inactive | inactive | inactive | inactive | inactive | inactive | 0.5791 | > 100 µg/mL | > 100 µg/mL | MIC [21]: > 100 µg/mL; MIC [22]: > 100 µg/mL
4 | Cc1ccc(CNC(=O)c2cnc(Cl)cn2)cc1 | Stable | inactive | inactive | inactive | inactive | inactive | inactive | inactive | inactive | inactive | inactive | inactive | inactive | inactive | inactive | inactive | inactive | 0.4199 | > 100 µg/mL | > 100 µg/mL | MIC [21]: 3.13 µg/mL (≈ 12 µM); MIC [22]: 25 µg/mL (≈ 95.5 µM)
5 | Cc1ccccc1CNC(=O)c1cnc(Cl)cn1 | Stable | inactive | inactive | inactive | inactive | inactive | inactive | inactive | inactive | inactive | inactive | inactive | inactive | inactive | inactive | inactive | inactive | 0.3947 | > 100 µg/mL | > 100 µg/mL | MIC [21]: 25 µg/mL (≈ 95.5 µM); MIC [22]: 50 µg/mL (≈ 191 µM)
6 | O=C(NCc1ccc(Br)cc1)c1cnc(Cl)cn1 | Stable | inactive | inactive | inactive | inactive | inactive | inactive | inactive | inactive | inactive | inactive | inactive | inactive | inactive | inactive | inactive | inactive | 0.4981 | > 100 µg/mL | > 100 µg/mL | Ratio [23]: 3; MIC [21]: 50 µg/mL (≈ 153 µM); MIC [22]: 12.5 µg/mL (≈ 38.3 µM)
7 | O=C(NCc1ccc(Cl)cc1Cl)c1cnc(Cl)cn1 | Stable | inactive | inactive | inactive | inactive | inactive | inactive | inactive | inactive | inactive | inactive | inactive | inactive | inactive | inactive | inactive | inactive | 0.727 | > 100 µg/mL | > 100 µg/mL | Ratio [23]: 3; MIC [21]: > 100 µg/mL; MIC [22]: 12.5 µg/mL (≈ 39.5 µM)
